Values quoted from earlier work as cited in US20180311177A1, “Therapeutic Nanoparticles Comprising A Therapeutic Agent and Methods of Making and Using Same” (Pfizer Inc., priority 2015, published 2018).

Legend:
[1] = not given; remark: listed apart in the source

For `c1ccc(CCNCc2ccccc2)cc1` [N-(phenylmethyl)benzeneethanamine], the “log P” value is given as 3.54 and the pKa [1] is given as 9.88.

In the case of `c1ccc(CNCCNCc2ccccc2)cc1` [N,N′-dibenzylethylenediamine], the “log P” value is listed as 2.89.

In the case of `CCCCCCCCCCCCN` [dodecylamine], the “log P” value is listed as 4.25 and the pKa [1] is listed as 10.21.
